# Assay results from patent publication US9402875B2, “Amidated dopamine neuron stimulating peptide restoration of mitochondrial activity” (University of Kentucky Research Foundation, priority 2006, dated 2016).
# Entries after “also recorded” stand apart in the source; their conditions may differ. Ends that are not written are not given here.
# Experiments:
# [1] = tested on: unilateral 6-OHDA-lesioned rats; assay: Neurochemical content of tissue (HPLC-EC); assay type: in vivo, rat; details: 5 weeks after infusion
# Description: Unilateral 6-OHDA Lesions: The 6-OHDA solution was delivered to two injection sites along the medial forebrain bundle (MFB) using a protocol described by Lundblad et al. (2002) Eur. J. Neurosci. 15:120-132. Five weeks after the unilateral 6-OHDA MFB lesion procedure, animals were grouped based on apomorphine (0.05 mg/kg, s.c.)-induced rotational behaviour: Animals with >300 rotations per 60 minutes were selected. Lesioned animals received 5 vit of either a 20 μg/vd, DNSP-11 solution or citrate buffer vehicle solution in a manner similar to infusion delivery in normal animals.
# Neurochemical Content of Tissue: Lesioned animals were euthanized 5 weeks after DNSP-11 or vehicle infusion. The brains were sliced into 1 mm thick sections. […]
# The in vitro studies and in vivo measures of the effects of DNSP-11 led to an investigation of the potential neurorestorative properties of DNSP-11 to damaged dopamine neurons in a unilateral rat model of PD. […] At 5 weeks, the substantia nigra and striatum from each rat was analyzed by high performance liquid chromatography coupled with electrochemical detection.
# Rats were tested 3-4 weeks after the injection of 6-OHDA using low-dose (0.05 mg/kg, i.p.) apomorphine to induce rotational behavior. […] At 5 weeks, the substantia nigra and striatum from each rat was analyzed by high performance liquid chromatography coupled with electrochemical detection.
# [2] = Distribution, uptake and half-life of DNSP-11 in the brain (immunostaining); assay type: in vivo, rat; details: male, F344, rat, brain, 30 ug; 30 μg intracerebral injection
# Description: (§1) Additional studies were carried out to determine if DNSP-11 is actively taken up into dopamine-containing neurons in vivo. A single administration of 30 μg of DNSP-11 was delivered into the rat substantia nigra. Animals were euthanized at 0.5, 1.5, 4, 24 and 48 hrs after injection to visualize distribution of DNSP-11 using antibodies raised against DNSP-11 and the ubiquitinated form of DNSP-11. DNSP-11 antibodies labelled the cytosol and neurites of neurons in the area of the substantia nigra within 30 minutes after injection. DNSP-11 was taken up by neurons in both the substantia nigra, pars reticulata (SNr) and substantia nigra, pars compacta (SNc). […] Higher power micrographs from the SNc.
# (§2) To assess the distribution, uptake and degradation of DNSP-11 in the brain, young adult male F344 rats, as a test organism, received injections of 30 μg DNSP-11 in the substantia nigra, hippocampus or cortex. They were euthanized by anesthesia overdose at various time points from 30 minutes to 48 hrs later and perfused through the heart with saline followed by paraformaldehyde.
# (§3) Our standard published procedures for immuncytochemical staining were used (e.g. Gash D M et al., J Comp Neurol. 1995 December 18;363(3):345-58., Grondin et al., 2002; Ai et al., 2003). A polyclonal antibody was generated against DNSP-11 in rabbits (Alpha Diagnostic International, San Antonio, Tex.). Endogenous peroxidases were inactivated by incubation with 0.2% hydrogen peroxide (H2O2) for 10 minutes and background blocked with 4% normal serum, 1% bovine serum albumin (BSA) for 1 hour. Free floating sections were incubated in primary antisera. Sections were then exposed to the appropriate biotinylated IgG (Vecto Labs, Burlingame, Calif.) for 1 hour and then incubated in avidin-biotin-peroxidase complex using Elite ABC Vectastain Kits (Vector Labs) for 1 hour. Some sections were double-labeled using procedures following our published procedures for immunocytochemical staining to identify cells with two markers (e.g. Ai et al., 2003).
# (§4) Controls for immunostaining included the omission of primary antibodies and replacement of primary antibodies with normal serum of the same species.
# rat brain neurons = assay: as above; assay type: in vivo
# Description: as §1, §2, §3, §4
# [3] = tested on: mitochondria of substantia nigra and striatum; assay: Mitochondrial State III respiration 28 days after bilateral intranigral DNSP-11; assay type: in vivo, rat; details: 28 days post bilateral intranigral 30 μg
# Description: Six five-month-old male F344 rats received bilateral intranigral injections of 30 μg DNSP-11. Six age and sex-matched controls received injections of the same volume of vehicle (citrate buffer). Twenty-eight days after test material administration, the animals were euthanized by CO2 anesthesia and the brain samples rapidly dissected. The striatum and substantia nigra were isolated quickly and carefully using a rat brain matrix for F344 rats.
# Mitochondrial respiration was assessed using a miniature Clark-type electrode, in a sealed, thermostatic and continuously stirred chamber. Mitochondria were added to the chamber to yield a final protein concentration of 1 mg/ml. The substrate concentrations were 5.0 mM/2.5 mM for glutamate/malate and pyruvate/malate or 10 mM for succinate+[…] rotenone or α-glycerophosphate. State 3 respiration was initiated by the addition of 150 ηmols ADP. The respiratory control ratio was calculated as respiration in the presence of ADP (state 3)/respiration in absence of ADP (state 4). ADP/0 ratios were determined by dividing the amount of ADP phosphorylated during State III respiration by the amount of oxygen consumed. NAD-linked substrates, e.g. glutamate and pyruvate, utilize complexes I, III, IV in their oxidation, succinate utilizes complexes II, III, IV and α-glycerophosphate ultilizes III, IV. […]
# [4] = 30 μg bolus into mid-substantia nigra
substance,measurement,setting,value
"PPEAPAEDRSL-NH2 [DNSP-11, PPEAPAEDRSL-amide]","DOPAC tissue content, substantia nigra",[1]; vehicle 7.10±1.40 ng/g,16.48 ± 4.01 ng/g
same,"DA content, substantia nigra",[1]; vehicle 34.7±6.4 ng/g,59.1 ± 7.3 ng/g
same,half-life,[2],< 24 h
same,spread in the anterior-posterior plane,rat brain neurons; [4],~3 mm
same,spread in the medial-lateral plane,rat brain neurons; [4],≤ 2 mm
same,time to uptake by neurons after injection,rat brain neurons; 30 μg injected into rat substantia nigra (all brain areas evaluated),≤ 30 min
same,immunohistochemical staining for DNSP-11,rat brain neurons; 3 hrs after injection into substantia nigra,diminished
same,immunohistochemical staining for DNSP-11,rat brain neurons; 48 hours post peptide administration,no evidence of DNSP-11
same,"uptake into neurons of striatum, hippocampus and cortex",rat brain neurons; stereotaxic injections of 30 μg,Uptake was observed into neurons
same,State III oxygen consumption / oxidative phosphorylation vs vehicle,[3]; striatum,reached statistical significance; also recorded: increased
same,State III oxygen consumption / oxidative phosphorylation vs vehicle,"[3]; substantia nigra, n=2",trend towards an increase; also recorded: increased
